Experimental data reported in patent publication US11976064B2, “Toll-like receptor agonists” (Pfizer Inc., priority 2019, dated 2024).

Molecular target: T1, human toll like receptor 7 (hTLR7) (Homo sapiens, UniProt Q9NYK1)
T1 construct: host or cells: HEK293 (HEK-Blue hTLR7)
T1 sequence (Q9NYK1 27-1049): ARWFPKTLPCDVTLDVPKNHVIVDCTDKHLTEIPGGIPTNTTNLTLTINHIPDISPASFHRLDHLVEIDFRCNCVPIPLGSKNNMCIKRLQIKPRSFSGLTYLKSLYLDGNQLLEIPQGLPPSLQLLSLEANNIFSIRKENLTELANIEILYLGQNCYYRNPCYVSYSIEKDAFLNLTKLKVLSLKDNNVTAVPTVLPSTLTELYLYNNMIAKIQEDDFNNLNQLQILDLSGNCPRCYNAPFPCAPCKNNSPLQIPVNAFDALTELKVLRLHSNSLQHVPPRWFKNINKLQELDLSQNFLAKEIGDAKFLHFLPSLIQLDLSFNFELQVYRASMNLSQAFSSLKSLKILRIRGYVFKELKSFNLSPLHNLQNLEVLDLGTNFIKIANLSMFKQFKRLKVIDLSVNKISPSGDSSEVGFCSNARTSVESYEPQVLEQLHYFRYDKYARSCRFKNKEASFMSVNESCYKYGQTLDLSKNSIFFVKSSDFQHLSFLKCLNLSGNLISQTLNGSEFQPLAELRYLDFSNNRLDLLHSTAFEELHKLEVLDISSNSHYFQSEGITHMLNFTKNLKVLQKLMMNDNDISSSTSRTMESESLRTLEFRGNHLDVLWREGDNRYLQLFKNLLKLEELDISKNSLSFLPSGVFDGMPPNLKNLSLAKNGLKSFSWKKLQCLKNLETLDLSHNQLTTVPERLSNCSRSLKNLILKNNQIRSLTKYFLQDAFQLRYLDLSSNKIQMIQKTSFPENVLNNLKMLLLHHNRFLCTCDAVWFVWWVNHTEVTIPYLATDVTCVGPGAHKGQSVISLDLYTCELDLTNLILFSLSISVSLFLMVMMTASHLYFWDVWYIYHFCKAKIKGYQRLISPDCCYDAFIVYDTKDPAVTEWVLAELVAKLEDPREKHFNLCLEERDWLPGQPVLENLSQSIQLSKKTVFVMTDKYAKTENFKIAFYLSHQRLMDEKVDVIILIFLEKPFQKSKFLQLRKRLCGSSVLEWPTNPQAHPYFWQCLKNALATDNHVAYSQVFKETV
Test: hTLR7 cell functional assay (HEK-Blue hTLR7 SEAP reporter)
Format: cell-based
Settings: HEK293 cells stably overexpressing hTLR7, SEAP reporter; geometric mean when tested more than once
Experimental: The Examples described were tested for biological activity in functional cellular assays using HEK293 cells stably overexpressing human TLR7 or TLR8. The assays tested for the ability of each Example to stimulate secretion of interferon alpha (IFNα) in human primary blood mono nuclear cells (PBMC).
To determine the ability of each Example to activate the human toll like receptor 7 (hTLR7) or human toll like receptor 8 (hTLR8), cell-based reporter systems were utilized. HEK293 cells stably overexpressing either hTLR7 or hTLR8 along with a reporter gene containing an optimized secreted embryonic alkaline phosphatase gene (SEAP), under the control of the IFN-b minimal promoter fused to five NF-κB and AP-1-binding sites, were obtained from Invivogen (HEK-Blue™ hTLR7, cat #Hkb-ht1r7; HEK-Blue™ hTLR8, cat #Hkb-ht1r8). Stimulation of hTLR7 or hTLR8 in these cells activates NF-κB and AP-1 and induces the production of SEAP which can be quantified using an alkaline phosphatase detection reagent.
Cells were maintained in Dulbecco's Modified Eagle Media (DMEM) (containing Fetal Bovine Serum (FBS) heat inactivated (10%), Glutamax (2 mM), Penicillin/Streptomycin, Blasticidin (10 μg/ml), Zeocin (100 μg/ml) and Normocin (100 μg/ml)). On day one of the assay, Examples were prepared using 11-point half-log serial dilutions from a 10mM DMSO stock solution and 50 nl was spotted into 384-well Viewplates (PerkinElmer, cat #6007480). Positive control TLR7/8 agonist and negative control (DMSO, no Example) were also spotted within the assay plate and were used to determine percent effect during the analysis process. After resuspension in DMEM assay media containing FBS heat inactivated (10%), Glutamax (2 mM) and Penicillin/Streptomycin, 10,000 cells/20 μl/well were added to previously prepared plates. Plates were incubated overnight (16-20 hrs) at 37° C. in a 5% CO2 environment. Prewetted Microclime lids (Labcyte, LLS-0310) were used to prevent evaporation. On day two of the assay, QUANTI-Blue™ detection reagent was prepared by reconstituting QUANTI-Blue™ powder (InvivoGen, Rep-qb1) with 100 ml of sterile water and allowed to equilibrate to 37° C. for 15 minutes. 20 μl of QUANTI-Blue™ detection reagent was added to each well and plates were incubated at room temperature for 180 min. At the end of the incubation, plates were read on an Envision (Perkin Elmer) plate reader capturing absorbance at 650 nm.
Using Positive (TLR7/8 agonist) and Negative (DMSO) controls, the percent (%) effect was calculated for each Example using the following equation: effect=100−[100*{(Example−Positive Control)/(Negative Control−Positive Control)}]
The % effect at each concentration of each Example was calculated utilizing the ABase software suite (IBDS) and was relative to the amount of SEAP produced in the positive and negative control wells contained within each assay plate. The concentrations and % effect values for each Example were fit using a 4-parameter logistic model in ABase and the concentration of each Example that produced 50% response (EC50) was calculated.

Work on `Cc1nc(N)c2nc(CC(F)(F)F)n(CC(C)(CO)CO)c2c1C` [Example 8, 2-((4-amino-6,7-dimethyl-2-(2,2,2-trifluoroethyl)-1H-imidazo[4,5-c]pyridin-1-yl)methyl)-2-methylpropane-1,3-diol] yielded an EC50 of 78 nM.

`CCc1nc2c(N)nc3ccccc3c2n1CC(C)(CO)CO` [Example 15, 2-((4-amino-2-ethyl-1H-imidazo[4,5-c]quinolin-1-yl)methyl)-2-methylpropane-1,3-diol] showed an EC50 of 75 nM.

`CCCc1nc2c(N)nc3ccccc3c2n1CC(C)(CO)CO` [Example 16, 2-((4-amino-2-propyl-1H-imidazo[4,5-c]quinolin-1-yl)methyl)-2-methylpropane-1,3-diol] was tested, and the EC50 was 19 nM.

Work on `CCOCc1nc2c(N)nc3ccccc3c2n1CC(C)(CO)CO` [Example 3, 2-((4-amino-2-(ethoxymethyl)-1H-imidazo[4,5-c]quinolin-1-yl)methyl)-2-methylpropane-1,3-diol] yielded an EC50 of 29 nM.

In the case of `CCCCc1nc2c(N)nc3c(c2n1CC(C)(CO)CO)CCC3` [Example 14, 2-((4-amino-2-butyl-7,8-dihydrocyclopenta[b]imidazo[4,5-d]pyridin-1(6H)-yl)methyl)-2-methylpropane-1,3-diol], the EC50 is reported as 14 nM.

Work on `CCOCc1nc2c(N)nc(C)c(C)c2n1CC(C)(CO)CO` [Example 2, 2-((4-amino-2-(ethoxymethyl)-6,7-dimethyl-1H-imidazo[4,5-c]pyridin-1-yl)methyl)-2-methylpropane-1,3-diol] yielded an EC50 of 54 nM.

`CCCCc1nc2c(N)nc3ccccc3c2n1CC(C)(CO)CO` [Example 10, 2-((4-amino-2-butyl-1H-imidazo[4,5-c]quinolin-1-yl)methyl)-2-methylpropane-1,3-diol] showed an EC50 of 4 nM.

`CCOCc1nc2c(N)nc(C)c(C)c2n1CC(C)(CO)COC` (single isomer, unassigned) [Example 7, 3-(4-amino-2-(ethoxymethyl)-6,7-dimethyl-1H-imidazo[4,5-c]pyridin-1-yl)-2-(methoxymethyl)-2-methylpropan-1-ol] gave an EC50 of 103 nM.

`CCOCc1nc2c(N)nc(C)c(C)c2n1CC(CO)CO` [Example 1, 2-((4-amino-2-(ethoxymethyl)-6,7-dimethyl-1H-imidazo[4,5-c]pyridin-1-yl)methyl)propane-1,3-diol] showed an EC50 of 644 nM.

Work on `CCCCc1nc2c(N)nc3c(c2n1CC(C)(CO)CO)CCCC3` [Example 13, 2-((4-amino-2-butyl-6,7,8,9-tetrahydro-1H-imidazo[4,5-c]quinolin-1-yl)methyl)-2-methylpropane-1,3-diol] yielded an EC50 of 9 nM.

In the case of `CCOCc1nc2c(N)nc(C)c(C)c2n1CC(CC)(CO)CO` [Example 9, 2-((4-amino-2-(ethoxymethyl)-6,7-dimethyl-1H-imidazo[4,5-c]pyridin-1-yl)methyl)-2-ethylpropane-1,3-diol], the EC50 is reported as 27 nM.

Work on `CCOCc1nc2c(N)nc(C)c(C)c2n1CC(C)(CO)COC` (single isomer, unassigned) [Example 6, 3-(4-amino-2-(ethoxymethyl)-6,7-dimethyl-1H-imidazo[4,5-c]pyridin-1-yl)-2-(methoxymethyl)-2-methylpropan-1-ol] yielded an EC50 of 49 nM.
